Where two headings read alike, the source gives them in different places.
Experiments:
[1] = Electrometric titration (pKa); assay type: physicochemical; details: electrometric titration in 66% dimethylformamide in water
Solubility in solvents = assay type: physicochemical; details: solvents as named
From the text: The seven antibiotic factors are recovered from the fermentation and are obtained as a mixture, the A41030 complex. It will be recognized that the ratio of the factors in the A41030 complex will vary, depending upon the fermentation conditions used. The individual factors […], and G are separated and isolated as individual compounds, as hereinafter described.

Hemophilus influenzae = assay: Agar-dilution MIC; assay type: cell-based; details: Table 17, 24 hours
Bacteroides corrodens [2] = assay: Agar-dilution MIC (anaerobes); assay type: cell-based; details: Table 12; 24-hour; B. corrodens 1874
From the text: (§1) The A41030 antibiotics, factors A, B, and C, are active against a genus of anaerobic bacteria identified as Bacteroides sp., the 24-hour MIC values being determined by the agar-dilution method, and are set forth in Table 12, which follows.

Bacteroides vulgatis [3] = assay: Agar-dilution MIC (anaerobes); assay type: cell-based; details: Table 12; 24-hour; B. vulgatis 1563
From the text: as §1

B. thetaiotaomicron = assay type: cell-based
From the text: The agar-dilution procedure described by the International Collaborative study (ICS) group was used to determine the minimum inhibitory concentrations (MIC's).

Clostridium difficile [4] = assay type: cell-based; details: Table 16
From the text: The A41030 antibiotic factors A, B, C, D, E, F, and G, are also active against a number of strains of Clostridium difficile, as determined by the agar-dilution method.

Clostridium perfringens = assay type: cell-based; details: Table 14; Clostridium perfringens 81
Clostridium septicum = assay: Agar-dilution MIC (anaerobes); assay type: cell-based; details: Table 14; Clostridium septicum 1128
[5] = test system: Peptococcus asaccharolyticus; assay: Agar-dilution MIC (anaerobes); assay type: cell-based; details: Table 15
Procedure: (§2) The MIC values were determined by the agar-dilution method, and are recorded in Table 15, which follows.

Peptococcus prevoti = assay: Agar-dilution MIC (anaerobes); assay type: cell-based
[6] = test system: Peptostreptococcus anaerobius; assay: Agar-dilution MIC (anaerobes); assay type: cell-based
[7] = test system: Peptostreptococcus intermedius; assay: Agar-dilution MIC (anaerobes); assay type: cell-based; details: Table 15
[8] = test system: Bacteroides melaninogenicus; assay: Agar-dilution MIC (anaerobes); assay type: cell-based; details: Table 14; Bacteroides melaninogenicus 2736
Fusobacterium symbiosum = assay: Agar-dilution MIC (anaerobes); assay type: cell-based; details: Table 14; Fusobacterium symbiosum 1470
[9] = test system: Fusobacterium necrophorum; assay: Agar-dilution MIC (anaerobes); assay type: cell-based; details: Table 14; Fusobacterium necrophorum 6054A
Pc. constellatus = assay: Agar-dilution MIC (anaerobes); assay type: cell-based, Peptococcus constellatus; details: Table 15; Pc. constellatus 1468
Procedure: as §2

Salmonella typhi = assay: Agar-dilution MIC; assay type: cell-based; details: Table 17, 24 hours
S. pneumoniae = assay: Experimental bacterial infection in mice, subcutaneous ED50; assay type: in vivo; details: two doses subcutaneously
Procedure: (§3) All of the A41030 factors tested have shown in vivo antimicrobial activity against experimental bacterial infections. When two doses of test compound were administered subcutaneously to mice in illustrative infections, the activity observed is measured as an ED50 value [effective dose in mg./kg. to protect fifty percent of the test animals: See Warren Wick, et al., J. Bacteriol. 81, 233-235 (1961)].

S. pyogenes [10] = assay: as above; assay type: in vivo; details: two doses subcutaneously
Procedure: as §3

Staph. aureus = assay: as above; assay type: in vivo; details: two doses subcutaneously
Procedure: as §3

S. pyogenes [11] = assay: In vivo oral activity against S. pyogenes in mice
Bacteroides corrodens [12] = assay: Agar-dilution MIC (anaerobes); assay type: cell-based; details: Table 14; Bacteroides corrodens 1874
Bacteroides vulgatis [13] = assay: Agar-dilution MIC (anaerobes); assay type: cell-based; details: Table 14; Bacteroides vulgatis 1211
Clostridium difficile [14] = assay type: cell-based; details: Table 14; Clostridium difficile 2994

With A41030 factor C the “pKa, first titratable group” value [1] was “about 5.5”, the Solubility (Solubility in solvents) was “soluble in the same solvents as factor A” and the MIC (Hemophilus influenzae; Haemophilus influenzae 251) was 4 µg/mL. It also gave an MIC (Hemophilus influenzae; Haemophilus influenzae Brun) of 16 µg/mL, an MIC (Bacteroides corrodens [2]) of 32 µg/mL and an MIC (Bacteroides vulgatis [3]) of 32 µg/mL. The MIC (B. thetaiotaomicron; Table 12, 24-hour, B. thetaiotaomicron 1438) was 32 µg/mL, the MIC (B. thetaiotaomicron; Table 12, 24-hour, B. thetaiotaomicron 1900A) was 128 µg/mL and the MIC (B. thetaiotaomicron; Table 14, Bacteroides thetalotaomicron 1438) was 64 µg/mL. It also gave an MIC (Clostridium difficile [4]; C. difficile 78) of 1.0 µg/mL, an MIC (Clostridium difficile [4]; C. difficile 107B) of 1.0 µg/mL and an MIC (Clostridium difficile [4]; C. difficile 111F) of 2 µg/mL. It also gave an MIC (Clostridium difficile [4]; C. difficile 1153) of 2 µg/mL, an MIC (Clostridium difficile [4]; C. difficile 2634) of 2 µg/mL and an MIC (Clostridium difficile [4]; C. difficile 3424-5B) of 1.0 µg/mL. The MIC (Clostridium difficile [4]; C. difficile 3816) was 2 µg/mL, the MIC (Clostridium difficile [4]; C. difficile 3950) was 2 µg/mL and the MIC (Clostridium difficile [4]; C. difficile 6890) was 2 µg/mL. The MIC (Clostridium difficile [4]; C. difficile 8484) was 1.0 µg/mL, the MIC (Clostridium difficile [4]; C. difficile A-194) was 2 µg/mL and the MIC (Clostridium difficile [4]; C. difficile A-195) was 1.0 µg/mL. For the same substance, the MIC (Clostridium difficile [4]; C. difficile A-196) was 2 µg/mL, the MIC (Clostridium difficile [4]; C. difficile A-279) was 2 µg/mL and the MIC (Clostridium difficile [4]; C. difficile A-280) was 1.0 µg/mL. The MIC (Clostridium difficile [4]; C. difficile A-281) was 2 µg/mL, the MIC (Clostridium difficile [4]; C. difficile WAL-2112) was 2 µg/mL and the MIC (Clostridium difficile [4]; C. difficile WAL-3657) was 2 µg/mL. For the same substance, the MIC (Clostridium difficile [4]; C. difficile WAL-4268) was 1.0 µg/mL, the MIC (Clostridium perfringens) was 1.0 µg/mL and the MIC (Clostridium septicum) was 8 µg/mL. For the same substance, the MIC ([5]; Pc. asaccharolyticus 1302) was 0.125 µg/mL, the MIC ([5]; Pc. asaccharolyticus 1344) was 1.0 µg/mL and the MIC (Peptococcus prevoti; Table 14, Peptococcus prevoti 1281) was at most 0.25 µg/mL. The MIC (Peptococcus prevoti; Table 15, Pc. prevoti 1281) was 1.0 µg/mL, the MIC (Peptococcus prevoti; Table 15, Pc. prevoti 1293) was 0.5 µg/mL and the MIC (Peptococcus prevoti; Table 15, Pc. prevoti 1407) was 1.0 µg/mL. For the same substance, the MIC ([6]; Table 14, Peptostreptococcus anaerobius 1428) was at most 0.25 µg/mL, the MIC ([6]; Table 15, Ps. anaerobius 52) was 0.25 µg/mL and the MIC ([6]; Table 15, Ps. anaerobius 59) was 0.25 µg/mL. It also gave an MIC ([6]; Table 15, Ps. anaerobius 1418) of at most 0.03 µg/mL, an MIC ([6]; Table 15, Ps. anaerobius 1428) of 0.25 µg/mL and an MIC ([6]; Table 15, Ps. anaerobius 1451) of 0.25 µg/mL. The MIC ([6]; Table 15, Ps. anaerobius 1477) was 0.25 µg/mL, the MIC ([7]; Ps. intermedius 1264) was at most 0.03 µg/mL and the MIC ([7]; Ps. intermedius 1624) was 1.0 µg/mL. It also gave an MIC [8] of 4 µg/mL, an MIC (Fusobacterium symbiosum) of 1.0 µg/mL and an MIC [9] of 16 µg/mL. The MIC (Pc. constellatus) was 0.5 µg/mL, the MIC (Salmonella typhi; Salmonella typhi 1335) was over 128 µg/mL and the MIC (Salmonella typhi; Salmonella typhi X514) was over 128 µg/mL. The ED50 (S. pneumoniae) was 6.7 mg/kg, the ED50 (S. pyogenes [10]) was 10.4 mg/kg and the ED50 (Staph. aureus) was under 0.43 mg/kg. For the same substance, the “in vivo oral activity” value (S. pyogenes [11]) was over 300 mg./kg.X2, the MIC (Bacteroides corrodens [12]) was 32 µg/mL and the MIC (Bacteroides vulgatis [13]) was 32 µg/mL. The MIC (Clostridium difficile [14]) was 16 µg/mL.

Source: patent US4559323A, “A41030 Antibiotics” (Eli Lilly and Company, priority 1984, dated 1985)
